Results from publication PMC11010885, “Functional Analysis and Tissue-Specific Expression of Calcitonin and CGRP with RAMP-Modulated Receptors CTR and CLR in Chickens” (Animals : an Open Access Journal from MDPI, 2024).
Entries after “also recorded” stand apart in the source; their conditions may differ.

Key:
Type in all cases: cell-based
[1] = test system: chicken CTR + RAMP1; experiment: Calcium pGL3-NFAT-RE-luciferase reporter assay, CTR + RAMP1 in CHO cells; details: 10^−12 M to 10^−6 M, 6 h, mean ± SEM, n = 3, read-out: EC50, calcium signaling pathway
Protocol: (§1) Chinese hamster ovary (CHO) cells were cultured in Dulbecco’s modified Eagle’s medium (DMEM) supplemented with 10% (vol/vol) fetal bovine serum (HyClone, Logan, UT, USA), 100 U/mL penicillin G and 100 μg/mL streptomycin. The cells were maintained in a 90 mm culture dish (Nunc, Rochester, NY, USA) and incubated at 37 °C with 5% CO2. To investigate the signaling pathways associated with each receptor in CHO cells, three different reporter systems (pGL3-CRE-luciferase, pGL4-SRE-luciferase, and pGL3-NFAT-RE-luciferase) were utilized to monitor intracellular cAMP/PKA and MAPK/ERK signaling pathways and calcium mobilization of the activated receptors, respectively.
(§2) Prior to the transfection procedure, the cells were initially cultured in 6-well plates (Nunc, Rochester, NY, USA), maintaining a seeding density of approximately 300,000 cells per well. Upon achieving approximately 70% confluence, the cells underwent a co-transfection process. […] The fluorescence activity of the luciferase in each treatment group was measured using a multimode microplate reader (TriStar LB941, Berthold Technologies, Bad Wildbad, Germany). Finally, the fluorescence activity of each treatment group was expressed as a relative increase ratio compared to the control group.

[2] = test system: chicken CLR + RAMP1; experiment: MAPK/ERK pGL4-SRE-luciferase reporter assay, CLR + RAMP1 in CHO cells; details: 10^−12 M to 10^−6 M, 6 h, mean ± SEM, n = 3, read-out: EC50, MAPK/ERK signaling pathway
Protocol: as §1, §2

[3] = test system: chicken CTR in the absence or presence of RAMPs; experiment: cAMP/PKA pGL3-CRE-luciferase reporter assay, CTR without and with RAMPs compared
Protocol: as §1
(§3) Prior to the transfection procedure, the cells were initially cultured in 6-well plates (Nunc, Rochester, NY, USA), maintaining a seeding density of approximately 300,000 cells per well. Upon achieving approximately 70% confluence, the cells underwent a co-transfection process. This procedure entailed the introduction of 700 ng of various luciferase reporter constructs (namely, pGL3-CRE-luciferase, pGL4-SRE-luciferase, or pGL3-NFAT-RE-luciferase) combined with 200 ng of a specific receptor plasmid (CTR or CLR) and 1000 ng of either RAMP1, RAMP2, RAMP3 expression plasmids, or alternatively, the empty pcDNA3.1 (+) vector. A volume of 5.7 μL of PEI MAX was used in 200 μL of buffer following the manufacturer’s protocol. After 24 h of incubation, the transfected CHO cells were subcultured in 96-well plates and passaged for an additional 24 h before peptide treatment. Then, the medium from the 96-well plates was removed, and the cells were treated with chicken CT/CGRP-containing medium (or untreated medium as a control) at concentrations ranging from 10^−12 M to 10^−6 M for 6 h. […] The fluorescence activity of the luciferase in each treatment group was measured using a multimode microplate reader (TriStar LB941, Berthold Technologies, Bad Wildbad, Germany). Finally, the fluorescence activity of each treatment group was expressed as a relative increase ratio compared to the control group.

[4] = test system: chicken CLR; experiment: Calcium pGL3-NFAT-RE-luciferase reporter assay, CLR + pcDNA in CHO cells; details: 10^−12 M to 10^−6 M, 6 h, mean ± SEM, n = 3, read-out: EC50, calcium signaling pathway
Protocol: as §1, §2

[5] = test system: chicken CTR; experiment: Western blot CREB phosphorylation, CTR in CHO cells; details: 10 nM, 10 min, n = 3
Protocol: (§4) To assess whether the activation of chicken CTR and CLR, along with the presence of RAMPs, can augment the phosphorylation levels of cAMP response element-binding protein (CREB), 200 ng of CTR or CLR expression plasmids were combined with 1000 ng of chicken RAMPs or an empty pcDNA3.1 (+) vector in a 100 μL buffer. The resulting mixture was then transfected into CHO cells in a 12-well plate (Nunc, Rochester, NY, USA) using 3.6 μL of PEI MAX transfection reagent. After a 24 h incubation period, the cells were exposed to chicken CT (10 nM) or CGRP (10 nM) for 10 min. Subsequently, the culture medium was removed, and the cells were lysed according to the manufacturer’s instructions. Western blot analysis was performed to quantify the levels of CREB and phosphorylated CREB (p-CREB). The optical densities were analyzed and normalized using the software, ImageJ 1.52a (National Institutes of Health, Bethesda, MD, USA). The relative expression of p-CREB/CREB was determined by calculating the ratio of the optical density to that of the control without peptide treatment (0 min).

[6] = test system: chicken CLR + RAMP2; experiment: cAMP/PKA pGL3-CRE-luciferase reporter assay, CLR + RAMP2 in CHO cells; details: 10^−12 M to 10^−6 M, 6 h, mean ± SEM, n = 3, read-out: EC50, cAMP/PKA signaling pathway
Protocol: as §1, §2

[7] = test system: chicken CLR + RAMP3; experiment: cAMP/PKA pGL3-CRE-luciferase reporter assay, CLR + RAMP3 in CHO cells; details: 10^−12 M to 10^−6 M, 6 h, mean ± SEM, n = 3, read-out: EC50, cAMP/PKA signaling pathway
Protocol: as §1, §2

[8] = test system: chicken CLR + RAMP1; experiment: Calcium pGL3-NFAT-RE-luciferase reporter assay, CLR + RAMP1 in CHO cells; details: 10^−12 M to 10^−6 M, 6 h, mean ± SEM, n = 3, read-out: EC50, calcium signaling pathway
Protocol: as §1, §2

[9] = test system: chicken CLR in the absence or presence of RAMPs; experiment: cAMP/PKA pGL3-CRE-luciferase reporter assay, CLR without and with RAMPs compared
Protocol: as §1
Prior to the transfection procedure, the cells were initially cultured in 6-well plates (Nunc, Rochester, NY, USA), maintaining a seeding density of approximately 300,000 cells per well. Upon achieving approximately 70% confluence, the cells underwent a co-transfection process. This procedure entailed the introduction of 700 ng of various luciferase reporter constructs (namely, pGL3-CRE-luciferase, pGL4-SRE-luciferase, or pGL3-NFAT-RE-luciferase) combined with 200 ng of a specific receptor plasmid (CTR or CLR) and 1000 ng of either RAMP1, RAMP2, RAMP3 expression plasmids, or alternatively, the empty pcDNA3.1 (+) vector. A volume of 5.7 μL of PEI MAX was used in 200 μL of buffer following the manufacturer’s protocol. After 24 h of incubation, the transfected CHO cells were subcultured in 96-well plates and passaged for an additional 24 h before peptide treatment. Then, the medium from the 96-well plates was removed, and the cells were treated with chicken CT/CGRP-containing medium (or untreated medium as a control) at concentrations ranging from 10^−12 M to 10^−6 M for 6 h. Subsequently, the cells were harvested for luciferase assays by lysing them in 1 × passive lysis buffer. To measure the luciferase activity of the cell lysate, 40 μL of luciferase assay reagent (Promega, Madison, WI, USA) was mixed with the cell lysate following the manufacturer’s instructions. The fluorescence activity of the luciferase in each treatment group was measured using a multimode microplate reader (TriStar LB941, Berthold Technologies, Bad Wildbad, Germany). Finally, the fluorescence activity of each treatment group was expressed as a relative increase ratio compared to the control group.

[10] = test system: chicken CTR; experiment: Calcium pGL3-NFAT-RE-luciferase reporter assay, CTR + pcDNA in CHO cells; details: 10^−12 M to 10^−6 M, 6 h, mean ± SEM, n = 3, read-out: EC50, calcium signaling pathway
Protocol: as §1, §2

[11] = test system: chicken CLR + RAMP1; experiment: cAMP/PKA pGL3-CRE-luciferase reporter assay, CLR + RAMP1 in CHO cells
Protocol: as §1, §3

[12] = test system: chicken CTR; experiment: MAPK/ERK pGL4-SRE-luciferase reporter assay, CTR + pcDNA in CHO cells; details: 10^−12 M to 10^−6 M, 6 h, mean ± SEM, n = 3, read-out: EC50, MAPK/ERK signaling pathway
Protocol: as §1, §2

[13] = test system: chicken CTR + RAMP2; experiment: MAPK/ERK pGL4-SRE-luciferase reporter assay, CTR + RAMP2 in CHO cells; details: 10^−12 M to 10^−6 M, 6 h, mean ± SEM, n = 3, read-out: EC50, MAPK/ERK signaling pathway
Protocol: as §1, §2

[14] = test system: chicken CTR + RAMP2; experiment: cAMP/PKA pGL3-CRE-luciferase reporter assay, CTR + RAMP2 in CHO cells; details: 10^−12 M to 10^−6 M, 6 h, mean ± SEM, n = 3, read-out: EC50, cAMP/PKA signaling pathway
Protocol: as §1, §2

[15] = test system: chicken CLR + RAMP1; experiment: Western blot CREB phosphorylation, CLR + RAMP1 in CHO cells; details: 10 nM, 10 min, n = 3
Protocol: as §4

Q: calcitonin gene-related peptide [CGRP] was tested. Which EC50 [1] did it give?
A: The EC50 was > 100 nM.

Q: What about the EC50 [2] of the same substance?
A: Its EC50 is 0.66 ± 0.11 nM.

Q: And the “effect of RAMP co-expression on sensitivity of CTR” value ([3]; CHO cells, pGL3-CRE-luciferase)?
A: The value was “co-expression of RAMP1 or RAMP3 significantly increased the sensitivity of CTR to CGRP”.

Q: What about the “rank order of receptor sensitivity” value ([3]; CTR without/with RAMPs) of the same substance?
A: The value was “CTR + RAMP1 ≈ CTR + RAMP3 > CTR + RAMP2 ≈ CTR”.

Q: And the EC50 [4]?
A: Its EC50 is > 100 nM.

Q: What about the “CREB phosphorylation (p-CREB/CREB vs. control, 0 min)” value [5] of the same substance?
A: Its value is “significantly increased the CREB phosphorylation”.

Q: What about the EC50 [6] of the same substance?
A: Its EC50 is 40.9 ± 6.76 nM.

Q: And the EC50 [7]?
A: The EC50 was 1.84 ± 0.73 nM.

Q: What about the EC50 [8] of the same substance?
A: The EC50 was 0.15 ± 0.11 nM.

Q: And the “effect of RAMP co-expression on sensitivity of CLR” value ([9]; CHO cells, pGL3-CRE-luciferase)?
A: The value was “a significant increase in CLR’s sensitivity to CGRP with RAMP1 and RAMP3 co-expression; also recorded: RAMP2 co-expression led to a limited enhancement in sensitivity”.

Q: And the “rank order of receptor sensitivity” value ([9]; CLR without/with RAMPs)?
A: The value was “CLR + RAMP1 > CLR + RAMP3 >> CLR + RAMP2 >> CLR”.

Q: And the EC50 [10]?
A: The EC50 was > 100 nM.

Q: And the EC50 ([11]; CLR + RAMP1, CHO cells, pGL3-CRE-luciferase, 10^−12 M to 10^−6 M, 6 h, mean ± SEM, n = 3, read-out: EC50, cAMP/PKA signaling pathway)?
A: Its EC50 is 0.26 ± 0.03 nM.

Q: What about the “EC50 of CGRP relative to CT” value ([11]; CLR in the presence of RAMP1) of the same substance?
A: The value was “approximately tenfold lower than CT”.

Q: And the EC50 [12]?
A: Its EC50 is 6.73 ± 1.78 nM.

Q: And the EC50 [13]?
A: Its EC50 is 10.4 ± 1.12 nM.

Q: What about the EC50 [14] of the same substance?
A: The EC50 was 1.63 ± 0.19 nM.

Q: What about the “CREB phosphorylation (p-CREB/CREB vs. control, 0 min)” value [15] of the same substance?
A: The value was “significantly enhanced the CREB phosphorylation”.
